The text below walks through data of patent publication US20260224611A1, “POLYOL-B-POLYOXAZOLINE COPOLYMERS” (FREIE UNIVERSITÄT BERLIN, priority 2023, published 2026).

The test system of experiment [1] is infected non-diabetic wounds. Nature of the experiment: Wound healing animal study, infected non-diabetic wounds. The class given is in vivo. The conditions noted are these: after 10 days, rats. How it is done:
(§1) Based on these achievements, the efficiency of hPG-b-PEtO for diabetic wound healing in animals was investigated. For this purpose, an animal study was performed in two different groups of rats with infected non-diabetic wounds (FIG. 12A) and infected diabetic wounds (FIG. 12B). […] Saline buffer without additions was used as control. The ability of the copolymer to heal wounds was investigated by measuring the wound contraction at different treatment times.

The test system of another experiment is infected diabetic wounds. Nature of the experiment: Wound healing animal study, infected diabetic wounds. The class given is in vivo. The conditions noted are these: after 10 days, rats. How it is done: as §1

As to `O=C1NC(=O)C(c2ccccc2)(c2ccccc2)N1` [phenytoin], the wound closure area in experiment [1] worked out at 90%; in the experiment on infected diabetic wounds, 62%.
